From paper PMC12766724, “Synthesis, Anthelmintic Activity, and Mechanism of Action of 5‑Aryl‑1H‑indoles” (Journal of Agricultural and Food Chemistry, 2025) come the findings set out here.

For data set [1], the system named is C. elegans wild-type N2. Briefly: Microscopic scoring (score 1-5) of worm populations prior to the Chitinase assay, L1 exposed 4 days. In kind it is in vivo, Caenorhabditis elegans. The following applies: 50 μM; score 1 (dead/arrested L1) to 5 (healthy). From the text:
Dead or mostly immobile worms, arrested at the L1 stage, received a score of 1. Populations with severely delayed development were scored as 2. More developmentally advanced, but still obviously delayed worms were given the score of 3. Adult worms that produce a noticeably lower number of progeny received a score of 4. Healthy worms that reproduce normally (i.e., hundreds of eggs and larvae are present) were scored as 5 (see Figure C for representative images). In a typical, correctly prepared experiment, vehicle-treated populations should receive a score of 5, while worms treated with ivermectin (positive control) should receive a score of 1.
(§1) After exposing L1 larvae to the compounds for 4 days, we observed the populations under a microscope and measured the Chitinase activity. The larvae produce the enzyme while hatching, and its activity is indicative of the reproductive capacity of the worms. Populations that fail to reproduce due to acute or reproductive toxicity or developmental abnormalities are detected.

Data set [2] has as its system C. elegans N2 wild-type. Briefly: Chitinase assay (reproductive capacity). In kind it is in vivo, Caenorhabditis elegans. The following applies: Caenorhabditis elegans. The protocol:
(§2) The effect of compounds on C. elegans was evaluated using the Chitinase assay as we described previously.
as §1

In data set [3] the test system is C. elegans DA1316 avr-14(ad1305) I; avr-15(vu227) glc-1(pk54) V. Briefly: Chitinase assay (reproductive capacity). In kind it is in vivo. Conditions: Caenorhabditis elegans; ivermectin-resistant strain. Here is the method:
(§3) C. elegans strains used in this study were N2 (wild-type), levamisole-resistant strains ZZ15 (lev-8(x15) X) and […] (lev-1(e211) IV), ivermectin-resistant strain DA1316 (avr-14(ad1305) I; avr-15(vu227) glc-1(pk54) V), mebendazole-resistant strain […] (ben-1(e1880) III), and three strains with mutations in succinate dehydrogenase, RP2699, RP2700, and RP2702. The worms were cultivated on Nematode Growth Medium agar plates seeded with Escherichia coli OP50 in 20 °C according to the standard cultivation protocols. Strains RP2699, RP2700, and RP2702 were generated by Prof. Peter Roy’s group. All other strains and bacteria were purchased from the Caenorhabditis Genetics Center (CGC, Minneapolis, MN).
as §2
(§4) Lastly, strain DA1316 has mutations in three genes encoding subunits of the glutamate-gated chloride channel and is highly resistant to avermectins.

For data set [4], the system named is C. elegans CB3474 ben-1(e1880) III. Briefly: Chitinase assay (reproductive capacity). Conditions: Caenorhabditis elegans; mebendazole-resistant strain. The data set is classed as in vivo. Here is the method:
as §3, §2, §4

Data set [5] deals with C. elegans ZZ15 lev-8(x15) X. Briefly: Chitinase assay (reproductive capacity). The data set is classed as in vivo. The following applies: Caenorhabditis elegans; levamisole-resistant strain. The protocol: as §3, §2, §4
For data set [6], the system named is C. elegans CB211 lev-1(e211) IV. Briefly: Chitinase assay (reproductive capacity). The data set is classed as in vivo. The following applies: Caenorhabditis elegans; levamisole-resistant strain. The protocol:
as §3, §2, §4

In data set [7] the test system is Heterodera schachtii second-stage juveniles (J2). Briefly: Motility on WMicrotracker ONE. In kind it is in vivo. Here is the method: H. schachtii was maintained on mustard (Sinapsis alba cv. Albatros) roots grown in vitro on modified KNOP medium according to the previously published protocols. ,
(§5) The effect of compounds on motility of H. contortus, D. destructor, and H. schachtii was evaluated using the WMicrotracker ONE platform according to previously published protocols. ,
(§6) The instrument evaluates the activity of small animals by counting how many times infrared light microbeams passing through the wells of a microtiter plate are interrupted. In age-unsynchronized populations of D. destructor, we observed reduced motility of worm populations treated with the halogenated derivatives i-19, i-20, and i-21 (Figures A, S2.1A, S2.2A and Table S2.1). […] The decreases in mean activity counts after 72 h of treatment at 100 μM were 85% and 97%, respectively.

Data set [8] deals with Arabidopsis thaliana Col-0. Briefly: Germination rate and phytotoxicity. The data set is classed as in vivo. The following applies: for average fraction of germinated seeds: 5 DPS; for main root length / plant weight: 10 DPS. Here is the method: Wild-type A. thaliana (Col-0 ecotype) seeds were sterilized with 70% EtOH with 0.1% Tween-20 solution (2 × 1 mL) for 10 min, rinsed with 96% EtOH (1 × 1 mL) for 10 min, and kept in the fridge (4 °C in the dark). Seeds were sown on a sterile 1/2 MS medium supplemented with 0.3% DMSO as a mock and test compounds at 5, 10, 50, and 100 μM concentrations in 0.3% DMSO. Plates were kept in long-day light conditions (22 °C/20 °C, 16 h light/8 h dark, 100 μmol m^–2 s^–1). After 5 days, the germination rate was evaluated. After an additional 5 days, primary root growth was measured with ImageJ software (https://imagej.nih.gov/ij/), and seedlings were weighted.

The subject of data set [9] is age unsynchronized Ditylenchus destructor. Briefly: Motility on WMicrotracker ONE. In kind it is in vivo. The protocol: Populations of D. destructor, kindly provided by Central Institute for Supervising and Testing in Agriculture, the Ministry of Agriculture of the Czech Republic, were maintained according to the protocol previously described here.
as §5, §6

Data set [10] has as its system Skin fibroblasts (BJ). Briefly: Resazurin assay, 3-day treatment. The data set is classed as cell-based, human. Conditions: BJ. Here is the method:
Skin fibroblasts (BJ) were obtained from the American Type Culture Collection (ATCC, Manassas, VA), while human keratinocytes (HaCaT) were sourced from the German Cancer Research Center in Heidelberg, Germany. Cells were cultured in a standard DMEM medium from Sigma-Aldrich, supplemented with 10% fetal bovine serum, 2 mM glutamine, 100 U/mL penicillin, and 100 μg/mL streptomycin. Cultures were maintained under standard conditions (37 °C, 5% CO2, humidified atmosphere) and subcultured two to three times per week. We assessed the effect of 3-day compound treatments on cell viability using a resazurin reduction assay measuring mitochondrial activity. Approximately 5,000 cells in 80 μL of culture medium were seeded into the wells of a 96-well plate. Twenty-four hours later, 20 μL of 5-fold concentrated test compound solutions was added and tested across three concentrations prepared through 2-fold serial dilutions. The highest final concentration was 40 μM. After 72 h, we added an 11-fold concentrated resazurin solution to the wells, achieving a final concentration of 0.0125 μM. Fluorescence (ex = 570 nm, em = 610 nm) was measured after 3 h of incubation. […]
(Resazurin is reduced to fluorescent resorufin, in cell work by metabolically active cells.)

The test system of data set [11] is human keratinocytes (HaCaT). Briefly: Resazurin assay, 3-day treatment. In kind it is cell-based. Here is the method:
Skin fibroblasts (BJ) were obtained from the American Type Culture Collection (ATCC, Manassas, VA), while human keratinocytes (HaCaT) were sourced from the German Cancer Research Center in Heidelberg, Germany. Cells were cultured in a standard DMEM medium from Sigma-Aldrich, supplemented with 10% fetal bovine serum, 2 mM glutamine, 100 U/mL penicillin, and 100 μg/mL streptomycin. Cultures were maintained under standard conditions (37 °C, 5% CO2, humidified atmosphere) and subcultured two to three times per week. We assessed the effect of 3-day compound treatments on cell viability using a resazurin reduction assay measuring mitochondrial activity. Approximately 5,000 cells in 80 μL of culture medium were seeded into the wells of a 96-well plate. Twenty-four hours later, 20 μL of 5-fold concentrated test compound solutions was added and tested across three concentrations prepared through 2-fold serial dilutions. The highest final concentration was 40 μM. After 72 h, we added an 11-fold concentrated resazurin solution to the wells, achieving a final concentration of 0.0125 μM. Fluorescence (ex = 570 nm, em = 610 nm) was measured after 3 h of incubation.
The disubstituted derivatives i-25 and i-27 were the most toxic in the set, causing around a 50% decrease in viability of HaCaT cells at 40 μM.

Where [12] appears, read: 10 µM group, initial (prior to the treatment).
The mark [13] stands for this setting: 50 µM group, initial (prior to the treatment).
[14] abbreviates: 100 µM group, initial (prior to the treatment).

Molecule `CCOc1ccccc1-c1ccc2[nH]ccc2c1` [i-8] registered an average score in data set [1] of 2.5.
`CCOc1ccc(-c2ccc3[nH]ccc3c2)cc1` [i-10] came in with an average score in data set [1] of 1.8.
As to `CCCOc1ccccc1-c1ccc2[nH]ccc2c1` [i-11], the average score in data set [1] stood at 1.5.
Usually IC50 stands for the concentration that inhibits the measured activity by half. Lower therefore signals greater potency. For the molecule `CCOc1cc(-c2ccc3[nH]ccc3c2)ccc1Cl` [i-25], the IC50 in [2] is 9.74 ± 1.65 µM; in data set [3], 9.93 ± 0.68 µM; in data set [4] it was 7.79 ± 0.36 µM; in [5], 8.72 ± 0.13 µM; in [6], 9.36 ± 0.43 µM. The average activity counts was 174 in data set [7] (setting [12]); 160 in data set [7] (10 µM, 48 h); 171 in data set [7] (10 µM, 72 h); 178 in [7] (setting [13]); 184 in data set [7] (50 µM, 48 h); 170 in data set [7] (50 µM, 72 h). For the same molecule, the average activity counts in data set [7] (setting [14]) is on record as 172; in data set [7] (100 µM, 48 h), 195; in data set [7] (100 µM, 72 h) it was 190; in data set [9] (setting [12]), 234; in [9] (10 µM, 48 h) it was 221; in data set [9] (10 µM, 72 h), 194. The average activity counts is 246 in [9] (setting [13]); 209 in data set [9] (50 µM, 48 h); 197 in data set [9] (50 µM, 72 h); 230 in data set [9] (setting [14]); 210 in [9] (100 µM, 48 h); 203 in [9] (100 µM, 72 h). Besides, the “average fraction of germinated seeds” value in data set [8] (5 µM) amounted to 0.98; in data set [8] (10 µM), 0.95; in [8] (50 µM), 0.96. For the same molecule, the main root length in data set [8] (5 µM) amounted to 38.29 mm; in data set [8] (10 µM), 38.15 mm; in data set [8] (50 µM) it was 34.25 mm. Further, the plant weight is 30.25 mg in data set [8] (5 µM), 31.97 mg in data set [8] (10 µM) and 27.79 mg in data set [8] (50 µM). Besides, the “Average viability (signal intensity relative to control)” value in [10] (10 µM) is recorded as 0.92 ± 0.01; in data set [10] (20 µM), 0.9 ± 0.05; in data set [10] (40 µM), 0.74 ± 0.06; in [11] (10 µM), 0.93 ± 0.02; in data set [11] (20 µM) it was 0.88 ± 0.06; in data set [11] (40 µM), 0.53 ± 0.1. Also, the decrease in viability in data set [11] (40 µM) is listed as roughly 50%.
Consider `CC(C)Oc1cc(-c2ccc3[nH]ccc3c2)ccc1Cl` [i-27], for which the IC50 in [2] came out at 9.75 ± 1.65 µM; in data set [3], 10.79 ± 0.08 µM; in data set [4], 7.48 ± 0.06 µM; in data set [5], 8.83 ± 0.47 µM; in data set [6] it was 9.85 ± 0.33 µM. Besides, the average activity counts in [7] (setting [12]) was 169; in data set [7] (10 µM, 48 h), 161; in data set [7] (10 µM, 72 h) it was 167; in data set [7] (setting [13]), 189; in data set [7] (50 µM, 48 h), 124; in data set [7] (50 µM, 72 h), 113. Also, the average activity counts was found to be 169 in data set [7] (setting [14]); 161 in [7] (100 µM, 48 h); 111 in data set [7] (100 µM, 72 h); 242 in data set [9] (setting [12]); 235 in data set [9] (10 µM, 48 h); 211 in data set [9] (10 µM, 72 h). Further, the average activity counts in data set [9] (setting [13]) came out at 248; in data set [9] (50 µM, 48 h), 227; in data set [9] (50 µM, 72 h), 223; in [9] (setting [14]), 213; in data set [9] (100 µM, 48 h), 207; in [9] (100 µM, 72 h), 202. Moreover, the results for the “average fraction of germinated seeds” value in data set [8] (5 µM), in [8] (10 µM) and in data set [8] (50 µM) were 0.94, 0.98 and 0.95, respectively. In addition, the main root length in [8] (5 µM) worked out at 39.90 mm; in data set [8] (10 µM), 40.35 mm; in data set [8] (50 µM), 37.27 mm. Also, the plant weight was 33.97 mg in data set [8] (5 µM), 35.66 mg in [8] (10 µM) and 30.34 mg in data set [8] (50 µM). Moreover, the “Average viability (signal intensity relative to control)” value in data set [10] (10 µM) was found to be 0.92 ± 0.02; in [10] (20 µM) it was 0.92 ± 0.03; in [10] (40 µM), 0.89 ± 0.03; in data set [11] (10 µM) it was 0.78 ± 0.12; in data set [11] (20 µM), 0.6 ± 0.19; in [11] (40 µM), 0.48 ± 0.21. The molecule further showed a decrease in viability in [11] (40 µM) of roughly 50%.
